Measured values taken from patent US20100331363A1, “TREATMENT OF MITOCHONDRIAL DISORDERS USING A FARNESYL TRANSFERASE INHIBITOR” (Link Medicine Corporation, priority 2008, published 2010).
Entries after “also recorded” stand apart in the source; their conditions may differ.

Legend:
INS1 cells = test: Glucolipotoxicity-induced mitochondrial fragmentation in INS1 cells; type: cell-based; conditions: 1 nM
Procedure: To determine the effect of LNK-754 on glucolipotoxicity-induced mitochondrial fragmentation, LNK-754 at 1 nM and 100 nM concentrations was cultured with INS1 cells in media containing palmitate according to methods and procedures described in Molina et. al. 2009. […] Treatment with 1 nM LNK-754 results in about a 70% increase in normal mitochondrial morphology in comparison with no treatment with LNK-754. […] Treatment with 1 nM LNK-754 results in about a 55% decrease in fragmentation induced by palmitate. Low dose LNK-754 protected INS1 cells from glucolipotoxicity-induced mitochondrial fragmentation as evident from the striking mitochondrial imaging results.

HDJ2 = test: Inhibition of HDJ2 farnesylation in SH-SY5Y cells; type: cell-based, human; conditions: continuous exposure over long periods
[1] = tested on: APP processing and secretion; test: APP processing and secretion in a cell culture model of pathogenic Aβ production; type: cell-based
Source text: Finally, it is important to note that LNK-754-TS had no effect on APP processing and secretion in a cell culture model of pathogenic Aβ production (Selkoe, D. J., et al. Ann N Y Acad Sci 777, 57-64 (1996)).

LC3-II protein = LC3-II protein level in SH-SY5Y cells with or without bafilomycin A1; type: cell-based, human
Procedure: The observed increase in LC3-positive autophagosomes could result, in principle, from either an increased flux through the autophagy pathway or decreased autophagosome degradation (Pankiv, S., et al. J Biol Chem 282, 24131-24145 (2007); Kamada, Y., et al. J Cell Biol 150, 1507-1513 (2000)). […] In order to ascertain an increase in autophagic flux, cells were co-treated with LNK-754-TS and an inhibitor of autophagosome-lysosome fusion, bafilomycin A1 (10 nM). Bafilomycin treatment alone caused a 100% increase in the amount of LC3-II, consistent with the fact that it inhibits autophagosome degradation (FIG. 8c).

Aβ = Aβ immunohistochemistry, Thioflavin-S and Aβ40/Aβ42 ELISA in APP/PS1 transgenic mice; type: in vivo, mouse
Source text: Immunohistochemistry and quantification of stained cells: For evaluation of α-synuclein immunoreactivity (IR), 5 sagittal cryo-cut sections (10 μm slice thickness) from five different layers were used for counting of IR cells in the cortex and hippocampus. Brain sections were stained with a monoclonal human α-synuclein specific antibody (Alexis®; Cat#804-258-L001; dilution 1:5), followed by a secondary Ab Cy 2-Goat Anti-Rat (Jackson ImmunoResearch®; dilution 1:200). IR positive cells were quantified using specialized image analysis software (Image Pro Plus, version 4.5.1.29). For Tau transgenic animals, 5 μm thick coronal paraffin sections were stained with the monoclonal mouse anti-human TAU-antibodies (AT180—1:100; HT7—1:500) and visualized using an anti-mouse Cy3 secondary antibody (1:500, Jackson Laboratories®). Images were evaluated with ImageProPlus (version 6.2) image analysis software. For APP/PS1 transgenic animals sagittal hemisections (40 μm) were collected and processed for Aβ immunohistochemistry using an 6E10 antibody, Thioflavin-S staining. Primary antibodies were detected by the ABC method.
ELISA quantification of α-Synuclein in the α-Synuclein transgenic animals: Brain homogenate was centrifuged and the supernatant saved as fraction F1. The pellet was washed then resuspended and saved as fraction F2. Plates (Nunc, 464718) were coated with SYN-1 (1:1000, BD Transduction Labs, 610787). Monomeric recombinant α-synuclein was included as an internal standard. Biotinylated antibody FL-140 (1:300, Santa Cruz Biotechnology, sc-10717-B) and ExtrAvidin-Alkaline phosphatase (3:5000, Sigma, E2636) was added followed by pNPP substrate solution (Sigma, N1891). Raw absorbance (405 nm) was then normalized to the total protein concentration of each sample. In the APP/PS1 transgenic animal, brains were homogenized and the supernatant, Faction 1, was separated from the pellet. The pellets were further processed with addition of NP40 and Triton X-100. The supernatant was separated from the pellet as the insoluble membrane, Fraction 2, and was dissolved in 8M Guanidine. To quantify the amount of human Aβ-40 and Aβ-42, ELISA kits were used (The Genetics Company, Zurich, Switzerland).
Mice were treated with LNK-754-TS for two months, tested for performance in the Morris water maze (MWM), and then sacrificed for immunohistochemical (Aβimmunoreactivity) and biochemical (ELISA measurement of Aβ40 and Aβ42) analysis.

[2] = tested on: autophagy-related gene transcripts; test: mRNA of autophagy-related genes (Atg1, p62) in SH-SY5Y cells; type: cell-based, human; conditions: 100 nM
Procedure: Quantitative real-time PCR: Gene expression profiles were done by qPCR on series of known autophagy genes. RNA was extracted with Tri-reagent (Sigma), and cDNAs generated using iScript (Biorad). qPCR analysis was carried out in a 96 well plate using an iCycler (BioRad, Hercules, Calif.), and iQ SYBR Green Supermix (Biorad) according to the manufacturer's specifications.
Rapamycin is a well-characterized autophagy stimulator that acts through inhibition of mTOR, a kinase involved in nutrient signaling and regulation of cell growth and survival.

[3] = 0.9 mg/kg once every 24 hr, two months

## C#Cc1cccc(-c2cc(=O)n(C)c3ccc([C@](O)(c4ccc(Cl)cc4)c4cncn4C)cc23)c1 [LNK-754, (R)-6-[(4-chlorophenyl)-hydroxyl-(1-methyl-1-H-imidazol-5-yl)-methyl]-4-(3-ethynylphenyl)-1-methyl-2-(1H)-quinonlinone]
INS1 cells
  decrease in fragmentation induced by palmitate: ~55%
INS1 cells; palmitate, vs no treatment
  increase in normal mitochondrial morphology: ~70%

## C#Cc1cccc(-c2cc(=O)n(C)c3ccc([C@](O)(c4ccc(Cl)cc4)c4cncn4C)cc23)c1 [LNK-754-TS, (R)-6-[(4-chlorophenyl)-hydroxyl-(1-methyl-1-H-imidazol-5-yl)-methyl]-4-(3-ethynylphenyl)-1-methyl-2-(1H)-quinonlinone (2S, 3S)-dihydroxybutanedioate]
HDJ2
  IC50: 10 nM
[1]
  APP processing and secretion: no effect
LC3-II protein; 100 nM in combination with bafilomycin A1 10 nM
  additional increase in LC3-II over bafilomycin alone: 75%
LC3-II protein; compound alone, without bafilomycin
  accumulation of LC3-I or LC3-II protein: did not cause accumulation
Aβ; [3]
  Thioflavin-S staining in the subiculum: no statistically significant changes
  levels of Aβ40/Aβ42 from whole brain fractions, ELISA: no statistically significant changes
Aβ; 0.9 mg/kg once every 24 hr, two months, vs vehicle
  number of Aβ (6E10) immunoreactive plaques in the subiculum: lesser, but still significant, effect; also recorded: significant decrease
Aβ; 0.9 mg/kg, 12 days
  Aβ40 or Aβ42 levels, Aβ immunoreactivity or Thio-S staining: no significant reduction
[2]; SH-SY5Y (FIG. 8e)
  transcript encoding p62: induced upregulation; also recorded: increased
[2]; SH-SY5Y (FIG. 8d)
  mRNA levels of a set of autophagy-related genes (incl. Atg1): unaffected
